Where two headings read alike, the source gives them in different places.
What was measured:
[1] = system: hematopoietic stem cells CD41:GFP accumulated in the CHT; type: in vivo; settings: for reduction of the number of HSCs accumulated in CHT: 10 μM (FIG. 3; b188 prints 10 μl), 24 h, vs reference embryos treated with DMSO; for efficiency on number of cells migrated to CHT: 24 hours, FIG. 6
Source text: A method for determining whether a molecule is capable of treating cancer in the pre-metastatic state has been described in international application WO 2011/007259. This method consists in isolating molecules capable of inhibiting the emergence of hematopoietic stem cells from the floor of the aorta without cell division, but by endothelial-to-hematopoietic transition. This emergence involves the loss of cell polarity of emerging cells, the loss of cellular junctions with these neighboring cells and the acquisition of migratory properties. This model is used because it mimics each stage of the epithelial-mesenchymal transition, the first stage of cancer metastasis. The endothelial-to-hematopoietic transition takes place in a region of the embryo called Aorta-Gonad-Mesonephros (AGM).
(§1) The colonization of hematopoietic tissues by hematopoietic stem cells mimics the appearance and/or progression of a metastatic cancerous tumor since it involves intravasation, extravasation, or the migration of HSCs following a gradient of SDF-1. The first colonized tissue is caudal hematopoietic tissue (CHT).
In order to evaluate the inhibition of the endothelial-to-hematopoietic transition, transgenic CD41:GFP (green fluorescent protein) embryos are used. HSCs express GFP under the control of the CD41 promoter, which allows them to be monitored in vivo under a fluorescence microscope. The read-out is the number of hematopoietic stem cells CD41:GFP accumulated in the AGM (mimicking the initiation of the metastatic process) and/or in the CHT of the zebrafish embryo (mimicking the progression of the metastatic process). The accumulation of CD41:GFP cells in CHT implies that each cell has made an endothelial-to-hematopoietic transition, intravasation, extravasation at the CHT level, has settled in a stromal niche and has proliferated.
The Tg transgenic zebrafish line (CD41:GFP) is maintained in accordance with the protocols described by the Ethical Committee for Animal Experimentation. The fish are kept at a temperature of 28° C. and their development stage is determined as before. The molecules are tested on zebrafish embryos at the 25 hpf stage. The embryos are decorticated and transferred to a 96-well plate (1 embryo/well) containing the test compounds in a final volume of 100 μl of the embryonic growth medium (60 μg salt for 1 ml H2O). […] The treated embryos are incubated for 24 hours in an incubator at 28° C.
The embryos are imaged with a plate reader after being anesthetized with 0.16% tricaine (ethyl-3-aminobenzoate). A quantification of the number of fluorescent cells (CD41:GFP) accumulated in the CHT is carried out.
Althiazide was tested on the zebrafish embryo according to the method previously described in the international application WO 2011/007259. This method consists in isolating molecules capable of inhibiting the emergence of hematopoietic stem cells from the floor of the aorta without cell division, but by endothelial-to-hematopoietic transition. This emergence involves the loss of cell polarity of emerging cells, the loss of cellular junctions with these neighboring cells and the acquisition of migratory properties. This model is used, in the context of the invention, because it mimics each of the stages of the epithelial-to-mesenchymal transition, the first stage of the cancerous metastasis. The endothelial-to-hematopoietic transition takes place in a region of the embryo called Aorto-Gonado-Mesonephros (AGM).
as §1, with “metastatic” for “metastatic cancerous”, “SDF1.” for “SDF-1.”, “(CHT). This physiological process is considered, in the context of the invention, as representative of the appearance and/or progression of a metastatic tumor. […]” for “(CHT).”

SNAIL = assay: q-RT-PCR expression of EMT markers in MDA-MB-231 cells under hypoxia: SNAIL; type: cell-based, human; settings: althiazide 100 μM, hypoxic conditions (1% O2), vs control, FIG. 11
Procedure: (§2) The cell cultures are carried out on human breast cancer epithelial cell lines MDA-MB-231 (HTB-26™), resulting from metastases present in a pleural effusion of a patient with a mammary adenocarcinoma. This line is used as a triple negative cancer cell model (no expression of ER-type nuclear estrogen receptors, nuclear progesterone receptors or overexpression of the oncogene encoding HER2 protein (Human Epidermal Growth factor Receptor-2).
(§3) The cells were cultured in DMEM medium (Eurobio, Fance) supplemented with 10% fetal calf serum (FCS) (Eurobio, Fance) at 37° C., 5% CO2. The medium was changed every 3 days.
(§4) The cells were placed in a controlled atmosphere at 1% oxygen 24 hours before the application of the different treatments.
(§5) The expression of the mRNAs is measured by the q-RT-PCR method. The cells were seeded at the density of 500,000 cells/well in 6-well plates. After 24 hours at 37° C., 5% CO2 and 1% O2, the medium was renewed and added the various treatments. RNA was isolated using TRI Reagent® (sigma), assayed and retro-transcribed into complementary DNA using the PrimeScript RT Reagent Kit (Takara). The expression levels of the mRNA of the genes of interest were determined by quantitative PCR (LightCycler® 480 Instrument II) with the primers listed in Table 2: […]
(§6) The results are calculated using the Delta Delta Ct (Δ ΔCt) method.

N-CADHERIN = assay: q-RT-PCR expression of EMT markers in MDA-MB-231 cells under hypoxia: N-CADHERIN; type: cell-based, human; settings: althiazide 100 μM, hypoxic conditions (1% O2), vs control, FIG. 11
Procedure: as §2, §3, §4, §5, §6

With `C=CCSCC1Nc2cc(Cl)c(S(N)(=O)=O)cc2S(=O)(=O)N1` (racemic) [althiazide] the “reduction of the number of HSCs accumulated in CHT” value [1] was 41%, the “reduction of the number of HSCs accumulated in CHT” value ([1]; listed as Althiazide) was “most effective chemical compound” and the “anti-migratory effect (HSCs accumulated in CHT) compared with dasatinib” value ([1]; 10 μM both, control DMSO 1%, FIG. 5) was “as effective as dasatinib”. The “decrease in the number of cells that colonized/migrated in CHT, second test” value ([1]; 10 μM, larger number of embryos (n=64 and n=74), FIG. 4) was 36.2%, the “efficiency on number of cells migrated to CHT” value (“efficiency on number” for short) ([1]; althiazide 1 μM) was “no effect” and the “efficiency on number” value ([1]; althiazide 10 μM) was 50%. For the same compound, the “efficiency on number” value ([1]; althiazide 100 μM) was 100%, the “invasion of CHT by CD41:GFP cells / number of cells having colonized CHT, in words” value ([1]; thiazide compounds test, 10 μM or 25 μM, FIG. 9) was “most effective chemical compound” and the “reduction of migration (cells having colonized CHT)” value ([1]; thiazide compounds test, FIG. 9, concentration not stated (tested at 10 and 25 μM)) was 30%. The “toxic effects in the dose effect test” value ([1]; zebrafish, in vivo) was “appearance of toxic effects”, the “change in expression of SNAIL” value (SNAIL) was −19% and the “change in expression of N-CADHERIN” value (N-CADHERIN) was −33%.

— patent publication US20230137849A1, “USE OF A COMPOUND OF THE DIURETICS CLASS FOR TREATING CANCER” (AZELEAD, priority 2017, published 2023)
